Assay results published in patent US20120129843A1, “PYRIDYL-THIAZOLYL INHIBITORS OF PRO-MATRIX METALLOPROTEINASE ACTIVATION” (priority 2010, published 2012).
pIC50, pKd: −log10 of the molar value. Counter-ions that a name gives are not always drawn.

Tests used:
[1] = biological target: T1, proMMP9(20-445;ΔFnII) (SEQ ID NO:6) (Homo sapiens, UniProt P14780, DEL216-390); assay: ThermoFluor binding assay with proMMP9(20-445;ΔFnII)
T1 construct: start methionine (N); made in house; host or cells: E. coli BL21(DE3) RIL
T1 sequence (P14780 with tags, fused parts or gaps DEL216-390): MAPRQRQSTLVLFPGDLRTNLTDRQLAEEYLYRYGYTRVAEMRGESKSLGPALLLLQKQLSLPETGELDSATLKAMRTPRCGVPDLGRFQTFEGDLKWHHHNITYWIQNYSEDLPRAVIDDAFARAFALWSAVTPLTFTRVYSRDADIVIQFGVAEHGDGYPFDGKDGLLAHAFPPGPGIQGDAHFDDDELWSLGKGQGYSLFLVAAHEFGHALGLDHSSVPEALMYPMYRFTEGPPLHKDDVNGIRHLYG
Description: (§1) The ThermoFluor® (TF) assay is a 384-well plate-based binding assay that measures thermal stability of proteins (Biomol Screen 2001, 6, 429-40; Biochemistry 2005, 44, 5258-66). The experiments were carried out using instruments available from Johnson & Johnson Pharmaceutical Research & Development, LLC. TF dye used in all experiments was […] (1,8-ANS) (Invitrogen: A-47).
(§2) Compounds were arranged in a pre-dispensed plate (Greiner Bio-one: 781280), wherein compounds were serially diluted in 100% DMSO across 11 columns within a series. Columns 12 and 24 were used as DMSO reference and contained no compound. For multiple compound concentration-response experiments, the compound aliquots ([…]) were robotically predispensed directly into black 384-well polypropylene PCR microplates (Abgene: TF-0384/k) using a Cartesian Hummingbird liquid handler (DigiLab, Holliston, Mass.). Following compound dispense, protein and dye solutions were added to achieve the final assay volume of 3 μL. The assay solutions were overlayed with 1 μL of silicone oil (Fluka, type DC 200: 85411) to prevent evaporation.
(§3) Assay plates were robotically loaded onto a thermostatically controlled PCR-type thermal block and then heated from 40 to 90° C. at a ramp-rate of 1° C./min for all experiments. Fluorescence was measured by continuous illumination with UV light (Hamamatsu LC6) supplied via fiber optics and filtered through a band-pass filter (380-400 nm; >60D cutoff). Fluorescence emission of the entire 384-well plate was detected by measuring light intensity using a CCD camera (Sensys, Roper Scientific) filtered to detect 500±25 nm, resulting in simultaneous and independent readings of all 384 wells. A single image with 20-sec exposure time was collected at each temperature, and the sum of the pixel intensity in a given area of the assay plate was recorded vs temperature and fit to standard equations to yield the Tm (J Biomol Screen 2001, 6, 429-40).
(§4) Thermodynamic parameters necessary for fitting compound binding for each proMMP were estimated by differential scanning calorimetry (DSC) and from ThermoFluor® data. The heat capacity of unfolding for each protein was estimated from the molecular weight and from ThermoFluor® dosing data.
ThermoFluor® with proMMP9(20-445;ΔFnII) (SEQ ID NO:6)
The protein sample preparations included a desalting buffer exchange step via a PD-10 gravity column (GE Healthcare). The desalting buffer exchange was performed prior to diluting the protein to the final assay concentration of 2.8 μM proMMP9(20-445;ΔFnII) (SEQ ID NO:6). The concentration of proMMP9(20-445;ΔFnII) (SEQ ID NO:6) was determined spectrophotometrically based on a calculated extinction coefficient of ε280=39880 M^−1cm^−1, a calculated molecular weight of 28.2 kDa, and calculated pI of 5.5. ThermoFluor® reference conditions were define as follows: 80 μg/mL (2.8 μM) proMMP9(20-445;ΔFnII) (SEQ ID NO:6), 50 μM 1,8-ANS, pH 7.0 Buffer (50 mM HEPES pH 7.0, 100 mM NaCl, 0.001% Tween-20, 2.5 mM MgCl2, 300 μM CaCl2). The thermodynamic parameters for proMMP9(20-445;ΔFnII) (SEQ ID NO:6) are as follows: Tm (° C.)=72 (+/−0.1), ΔUH(Tm) (cal mol^−1)=160000(+/−5000), ΔUS(Tm) (cal mol^−1 K^−1)=434, ΔUCp (cal mol^−1 K^−1)=2400.

[2] = biological target: T2, proMMP9(67-444;ΔFnII) (SEQ ID NO:5) (Homo sapiens, UniProt P14780, DEL216-390); assay: ThermoFluor binding assay with proMMP9(67-444;ΔFnII)
T2 construct: start methionine (N); made in house; host or cells: E. coli BL21(DE3) RIL
T2 sequence (P14780 with tags, fused parts or gaps DEL216-390): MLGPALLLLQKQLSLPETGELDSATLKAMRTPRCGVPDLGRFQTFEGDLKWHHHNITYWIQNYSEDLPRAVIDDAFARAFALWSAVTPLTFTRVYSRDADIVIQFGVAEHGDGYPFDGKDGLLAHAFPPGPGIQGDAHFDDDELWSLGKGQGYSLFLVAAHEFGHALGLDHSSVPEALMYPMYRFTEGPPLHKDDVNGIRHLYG
Description: as §1, §2, §3, §4
ThermoFluor® with proMMP9(67-444;ΔFnII) (SEQ ID NO:5)
The protein sample preparations had to include a desalting buffer exchange step via a PD-10 gravity column (GE Healthcare). The desalting buffer exchange was performed prior to diluting the protein to the final assay concentration of 3.5 μM proMMP9(67-444;ΔFnII) (SEQ ID NO:5). The concentration of proMMP9(67-444;ΔFnII) (SEQ ID NO:5) was determined spectrophotometrically based on a calculated extinction coefficient of ε280=33900 M^−1cm^−1, a calculated molecular weight of 22.6 kDa, and calculated pI of 5.20. ThermoFluor® reference conditions were defined as follows: 80 μg/mL (3.5 μM) proMMP9(67-444;ΔFnII) (SEQ ID NO:5), 50 μM 1,8-ANS, pH 7.0 Buffer (50 mM HEPES pH 7.0, 100 mM NaCl, 0.001% Tween-20, 2.5 mM MgCl2, 300 μM CaCl2). The thermodynamic parameters for proMMP9(67-444;ΔFnII) (SEQ ID NO:5) are as follows: Tm (° C.)=63 (+/−0.1), ΔUH(Tm) (cal mol^−1)=105000(+/−5000), ΔUS(Tm) (cal mol^−1 K^−1)=[…], ΔUCp (cal mol^−1 K^−1)=2000.

[3] = biological target: T3, full-length proMMP9(1-707) (SEQ ID NO:1), activation by catalytic MMP3 (Homo sapiens, UniProt P14780, R574P); assay: proMMP9/MMP3 P126 Activation Assay; format: biochemical
T3 construct: made in house; host or cells: HEK293 (proMMP9, secreted); E. coli (MMP3)
Description: proMMP9/MMP3 P126 Activation Assay
The reaction volume was 50 μL. […] Reactivity of residual MMP3 towards P-126 substrate was minimal under these conditions.

T3 sequence (P14780 20-707 R574P): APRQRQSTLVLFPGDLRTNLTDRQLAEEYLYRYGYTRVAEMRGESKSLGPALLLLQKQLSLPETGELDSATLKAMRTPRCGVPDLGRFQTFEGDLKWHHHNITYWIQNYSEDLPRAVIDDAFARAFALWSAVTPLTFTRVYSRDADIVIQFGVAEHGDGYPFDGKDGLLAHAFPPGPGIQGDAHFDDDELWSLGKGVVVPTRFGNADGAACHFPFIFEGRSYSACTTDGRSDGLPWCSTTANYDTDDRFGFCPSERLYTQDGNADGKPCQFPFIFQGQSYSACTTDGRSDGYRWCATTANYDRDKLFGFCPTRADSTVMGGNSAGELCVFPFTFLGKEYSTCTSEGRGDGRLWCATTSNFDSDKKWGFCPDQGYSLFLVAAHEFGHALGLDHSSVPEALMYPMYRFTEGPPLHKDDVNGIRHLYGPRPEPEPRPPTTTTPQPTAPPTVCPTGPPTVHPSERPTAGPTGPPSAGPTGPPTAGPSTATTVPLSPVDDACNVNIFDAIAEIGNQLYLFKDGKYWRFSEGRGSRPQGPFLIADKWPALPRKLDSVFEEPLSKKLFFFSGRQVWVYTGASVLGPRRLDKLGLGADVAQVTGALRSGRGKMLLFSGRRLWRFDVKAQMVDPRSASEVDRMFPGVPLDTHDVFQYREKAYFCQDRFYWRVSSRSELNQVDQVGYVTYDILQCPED

Compound	pKd [1]	pKd [2]	pIC50 [3]
COc1cc(C(N)=O)ccc1Nc1nc(-c2cccnc2)cs1 [Example 6, 3-Methoxy-4-(4-pyridin-3-yl-thiazol-2-ylamino)-benzamide]	4.15	4.96	4.96
COc1cc(C)c(C(N)=O)cc1Nc1nc(-c2ccc(N3CCN(C)CC3)nc2)cs1 [Example 7, 4-Methoxy-2-methyl-5-{4-[6-(4-methyl-piperazin-1-yl)-pyridin-3-yl]-thiazol-2-ylamino}-benzamide.TFA]	5.92	5.41	5.62
CC(C)Cc1ccc(C(N)=O)cc1Nc1nc(-c2ccc(N3CCN(C)CC3)nc2)cs1 [Example 8, 4-Isobutyl-3-{4-[6-(4-methyl-piperazin-1-yl)-pyridin-3-yl]-thiazol-2-ylamino}-benzamide.TFA]	6.43	5.54	5.74
CC(C)Oc1ccc(S(C)(=O)=O)cc1Nc1nc(-c2cccnc2)cs1 [Example 10, (2-Isopropoxy-5-methanesulfonyl-phenyl)-(4-pyridin-3-yl-thiazol-2-yl)-amine.TFA]	6.18	5.46	5.59
CCS(=O)(=O)c1ccc(OC)c(Nc2nc(-c3cccnc3)cs2)c1 [Example 11, (5-Ethanesulfonyl-2-methoxy-phenyl)-(4-pyridin-3-yl-thiazol-2-yl)-amine.TFA]	5.23	4.80	–
CC(C)Oc1ccc(C#N)cc1Nc1nc(-c2cccnc2)cs1 [Example 16, 4-Isopropoxy-3-(4-pyridin-3-yl-thiazol-2-ylamino)-benzonitrile.HBr]	4.70	5.54	5.49
CN1CCN(c2cc(-c3csc(Nc4cc(C(N)=O)ccc4OC(F)(F)F)n3)ccn2)CC1 [Example 36, 3-{4-[2-(4-Methyl-piperazin-1-yl)-pyridin-4-yl]-thiazol-2-ylamino}-4-trifluoromethoxy-benzamide.TFA]	5.89	5.14	5.64

The next compounds have a higher pKd [2] than those just listed; values first:

pKd [1]	pKd [2]	pIC50 [3]	Compound
7.09	6.00	6.68	CC(C)Oc1ccc(C(N)=O)cc1Nc1nc(-c2ccnc(N3CCN(C)CC3)c2)cs1 [Example 28, 4-Isopropoxy-3-{4-[2-(4-methyl-piperazin-1-yl)-pyridin-4-yl]-thiazol-2-ylamino}-benzamide.TFA]
6.03	5.80	5.85	COc1ccc(S(N)(=O)=O)cc1Nc1nc(-c2ccc(N3CCN(C)CC3)nc2)cs1 [Example 29, 4-Methoxy-3-{4-[6-(4-methyl-piperazin-1-yl)-pyridin-3-yl]-thiazol-2-ylamino}-benzenesulfonamide]
6.37	6.16	6.12	CN1CCN(c2ccc(-c3csc(Nc4cc(S(N)(=O)=O)ccc4OC(F)(F)F)n3)cn2)CC1 [Example 30, 3-{4-[6-(4-Methyl-piperazin-1-yl)-pyridin-3-yl]-thiazol-2-ylamino}-4-trifluoromethoxy-benzenesulfonamide]
6.96	6.21	6.19	CN1CCN(c2ccc(-c3csc(Nc4cc(C(N)=O)ccc4OC(F)(F)F)n3)cn2)CC1 [Example 31, 3-{4-[6-(4-Methyl-piperazin-1-yl)-pyridin-3-yl]-thiazol-2-ylamino}-4-trifluoromethoxy-benzamide]
6.44	5.64	6.08	COc1ccc(C(N)=O)cc1Nc1nc(-c2ccc(N3CCN(C)CC3)nc2)cs1 [Example 32, 4-Methoxy-3-{4-[6-(4-methyl-piperazin-1-yl)-pyridin-3-yl]-thiazol-2-ylamino}-benzamide]
7.34	6.92	6.85	CC(C)Oc1ccc(S(N)(=O)=O)cc1Nc1nc(-c2ccc(N3CCN(C)CC3)nc2)cs1 [Example 33, 4-Isopropoxy-3-{4-[6-(4-methyl-piperazin-1-yl)-pyridin-3-yl]-thiazol-2-ylamino}-benzenesulfonamide.HCl]
6.74	5.82	5.96	NC(=O)c1ccc(OC(F)(F)F)c(Nc2nc(-c3ccnc(Cl)c3)cs2)c1 [Example 34, 3-[4-(2-Chloro-pyridin-4-yl)-thiazol-2-ylamino]-4-trifluoromethoxy-benzamide.TFA]
6.72	6.34	6.96	CC(C)Oc1ccc(S(N)(=O)=O)cc1Nc1nc(-c2ccnc(N3CCN(C)CC3)c2)cs1 [Example 35, 4-Isopropoxy-3-{4-[2-(4-methyl-piperazin-1-yl)-pyridin-4-yl]-thiazol-2-ylamino}-benzenesulfonamide.TFA]
5.89	5.62	~5.70	CC(C)Oc1ccc(S(N)(=O)=O)cc1Nc1nc(-c2ccc(N3CCOCC3)nc2)cs1 [Example 37, 4-Isopropoxy-3-[4-(6-morpholin-4-yl-pyridin-3-yl)-thiazol-2-ylamino]-benzenesulfonamide.TFA]
7.14	6.42	6.77	CCN1CCN(c2ccc(-c3csc(Nc4cc(S(N)(=O)=O)ccc4OC(C)C)n3)cn2)CC1 [Example 38, 4-Isopropoxy-3-{4-[6-(4-ethyl-piperazin-1-yl)-pyridin-3-yl]-thiazol-2-ylamino}-benzenesulfonamide.TFA]
–	6.39	< 4.70	COC(=O)c1ccc(-c2csc(Nc3cc(S(N)(=O)=O)ccc3OC(C)C)n2)cn1 [Intermediate 12, 5-[2-(2-Isopropoxy-5-sulfamoyl-phenylamino)-thiazol-4-yl]-pyridine-2-carboxylic acid methyl ester.TsOH]
